Experiment: Inhibition of Respiratory syncytial virus A2 fusion protein expressed in HEK293T cells harboring GAL4-NF-kappaB assessed as reduction in cell-cell fusion by luciferase assay
Work on `CC(C)CCn1c(CN2C(=O)C3(CC3)c3ccccc32)nc2cc(CN)ccc21` yielded an IC50 of 0.4 nM. `CC(C)CCn1c(CN2C(=O)C3(CC3)c3c(Cl)cccc32)nc2cc(CN)ccc21` showed an IC50 of 11 nM. `CC(C)CCn1c(CN2C(=O)C3(CC3)c3cc(F)ccc32)nc2cc(CN)ccc21` gave an IC50 of 0.7 nM. With `CC(C)CCn1c(CN2C(=O)C3(CC3)c3cc(Cl)ccc32)nc2cc(CN)ccc21` the IC50 was 4.5 nM. In the case of `CC(C)CCn1c(CN2C(=O)C3(CC3)c3ccc(F)cc32)nc2cc(CN)ccc21`, the IC50 is reported as 0.5 nM. Compound `CC(C)CCn1c(CN2C(=O)C3(CC3)c3ccc(Cl)cc32)nc2cc(CN)ccc21` has an IC50 of 1.2 nM. For `CC(C)CCn1c(CN2C(=O)C3(CC3)c3cccc(Cl)c32)nc2cc(CN)ccc21`, the IC50 was 47 nM. With `CC(C)CCn1c(CN2C(=O)C3(CC3)c3cccc(F)c32)nc2cc(CN)ccc21` the IC50 was 1.3 nM. Work on `CS(=O)(=O)CCCn1c(CN2C(=O)C3(CC3)c3ccc(F)cc32)nc2cc(CN)ccc21` yielded an IC50 of 2.6 nM. `NCc1ccc2c(c1)nc(CN1C(=O)C3(CC3)c3ccc(F)cc31)n2CCCCO` showed an IC50 of 1.5 nM. `NCc1ccc2c(c1)nc(CN1C(=O)C3(CC3)c3cccc(F)c31)n2CCCC(F)(F)F` showed an IC50 of 1 nM. Work on `NCc1ccc2c(c1)nc(CN1C(=O)C3(CC3)c3ccc(F)cc31)n2C1CCC(O)CC1` (stereo not drawn) yielded an IC50 of 2.6 nM. Work on `NCc1ccc2c(c1)nc(CN1C(=O)C3(CC3)c3ccc(F)cc31)n2C1CCOCC1` yielded an IC50 of 1.2 nM. In the case of `N=C(N)c1ccc2c(c1)nc(CN1C(=O)C3(CC3)c3ccc(F)cc31)n2CCCC(F)(F)F`, the IC50 is reported as 3 nM. `CCNC(=N)c1ccc2c(c1)nc(CN1C(=O)C3(CC3)c3ccc(F)cc31)n2CCCC(F)(F)F` gave an IC50 of 641 nM. Compound `N=C(N)NCc1ccc2c(c1)nc(CN1C(=O)C3(CC3)c3ccc(F)cc31)n2CCCC(F)(F)F` has an IC50 of 183 nM. `NC(=O)c1ccc2c(c1)nc(CN1C(=O)C3(CC3)c3ccc(F)cc31)n2CCCC(F)(F)F` gave an IC50 of 71 nM. `O=C(O)c1ccc2c(c1)nc(CN1C(=O)C3(CC3)c3ccc(F)cc31)n2CCCC(F)(F)F` gave an IC50 greater than 25000 nM. Work on `CS(=O)(=O)c1ccc2c(c1)nc(CN1C(=O)C3(CC3)c3ccc(F)cc31)n2CCCC(F)(F)F` yielded an IC50 of 1070 nM. `CC(=O)NCc1ccc2c(c1)nc(CN1C(=O)C3(CC3)c3ccc(F)cc31)n2CCCC(F)(F)F` showed an IC50 of 365 nM. `O=C1N(Cc2nc3ccccc3n2CCCC(F)(F)F)c2cc(F)ccc2C12CC2` gave an IC50 of 37 nM. `O=C1N(Cc2nc3cc(Cl)ccc3n2CCCC(F)(F)F)c2cc(F)ccc2C12CC2` showed an IC50 of 6.2 nM. With `NCc1ccc2c(c1)nc(CN1C(=O)C3(CC3)c3ccc(F)cc31)n2CCCC(F)(F)F` [Sisunatovir] the IC50 was 0.9 nM.

From BindingDB's records for doi:10.1021/acs.jmedchem.0c01882 (Reviral, 2021)
